In patent US20220087960A1, “Oral Pharmaceutical Immediate Release Composition” (Aardvark Therapeutics Inc., priority 2020, published 2022):
Read-outs that look alike come from different tables or passages of the source.

Legend:
male SD rats = experiment: Single oral dose food intake study, 24-hour observational period (Example 6, first in vivo study); parameters: species or system rat
Procedure: This example compares efficacy of DA versus DB in food inhibition and body weight control. As a background, according to Avau et al., Sci. Rep. […] In our first in vivo study, 45 male SD rats (purchased from Envigo at 8-10 weeks of age) were divided into three groups (15 in each group), which were administered a single oral dose of vehicle (distilled water), 26.8 mg/kg of DB, or 23.1 mg/kg of DA respectively, with a 24-hour observational period, to compare the efficacy of DB versus DA in reducing food intake. Table 4. Mean cumulative food intake during 24-h observational period

male C57BL/6N DIO mice = experiment: 56-day BID treatment, food consumption and body weight in DIO mice (Example 6, second in vivo study); parameters: species or system mouse
Procedure: In a second in vivo study, 45 male C57BL/6N DIO mice (purchased from Envigo at 18 weeks of age, fed with high-fat diet) were divided into three groups (15 in each group), which were orally administered vehicle (distilled water), 26.8 mg/kg of DB, or 23.1 mg/kg of DA respectively, twice daily (BID), with a 56-day treatment period to compare the efficacy of DB versus DA in food intake reduction and body weight control. Briefly, once weekly, the food weight for each cage was recorded at 0 hour and then 24 hours later, permitting calculation of food consumption for that 24-hour interval. In addition, starting from Day 0, the mice were weighed three times weekly (every 2-3 days).

[1] = Maximum tolerated dose / LD50 study, single oral gavage, 14-day observational period (Example 7); details: both, Sprague Dawley, rat, in vivo
Procedure: (§1) The drugs were administered to Sprague Dawley rats with a 14-day observational period. Twenty-four Male Sprague Dawley (SD) rats and 24 female SD rats were purchased from Envigo at 8-10 weeks of age. The DA group had four dose levels (120, 360, 1000, and 2000 mg/kg, single administration by oral gavage), 3 rats per sex, 6 animals in total per dose level; and the DB group: four dose levels (120, 360, 1000, and 2000 mg/kg, single administration by oral gavage), 3 rats per sex, 6 animals in total per dose level. The estimated median lethal dose (LD50) was determined by a nonlinear regression [model: Y=100/(1+10^(LogEC50-X)), Hill slope=1.0) to calculate LD50.

Sprague Dawley rats = experiment: in vivo; details: rat, po; for Mortality rate: both, 14 day
Procedure: as §1

[2] = tested on: human TAS2Rs (TAS2R 4, 8, 10, 13, 39, 43, 46, and 47); details: cited from earlier work
normal C57BL/6 mice = details: oral 60 μmol/kg (26.8 mg/kg); cited from earlier work
C57BL/6 DIO mice = details: 60 μmol/kg (26.8 mg/kg) once daily, 28-day period; cited from earlier work
healthy volunteers = details: intragastric administration, cited from earlier work; for nutrient volume tolerance / satiation: 1 μmol/kg DB

CC[N+](CC)(CC(=O)Nc1c(C)cccc1C)Cc1ccccc1.O=C([O-])c1ccccc1 [DB, benzyl-[2-(2,6-dimethylanilino)-2-oxoethyl]-diethylazanium benzoate]
Mean cumulative food intake 0-2 h (male SD rats; single oral dose (DA 23.1 mg/kg, DB 26.8 mg/kg), 0-2 h, N = 15): 4.8 gram | Mean cumulative food intake 0-4 h (male SD rats; single oral dose (DA 23.1 mg/kg, DB 26.8 mg/kg), 0-4 h, N = 15): 7.7 gram | Mean cumulative food intake 0-6 h (male SD rats; single oral dose (DA 23.1 mg/kg, DB 26.8 mg/kg), 0-6 h, N = 15): 10.9 gram | Mean cumulative food intake 0-8 h (male SD rats; single oral dose (DA 23.1 mg/kg, DB 26.8 mg/kg), 0-8 h, N = 15): 13.8 gram | Mean cumulative food intake 0-24 h (male SD rats; single oral dose (DA 23.1 mg/kg, DB 26.8 mg/kg), 0-24 h, N = 15): 20.6 gram | cumulative food intake as compared with vehicle (male SD rats; single oral dose, all indicated time intervals): reduced cumulative food intake during all the indicated time intervals as compared with vehicle | body weight gain as compared to vehicle treatment (male C57BL/6N DIO mice; DIO mice on high-fat diet, 26.8 mg/kg DB or 23.1 mg/kg DA BID): less body weight gain as compared to vehicle treatment | Mean food consumption per animal for 24-h interval, Day 0 (male C57BL/6N DIO mice; DIO mice, BID oral (DA 23.1 mg/kg, DB 26.8 mg/kg), Day 0): 2.5 gram | Mean food consumption per animal for 24-h interval, Day 7 (male C57BL/6N DIO mice; DIO mice, BID oral (DA 23.1 mg/kg, DB 26.8 mg/kg), Day 7): 1.8 gram | Mean food consumption per animal for 24-h interval, Day 14 (male C57BL/6N DIO mice; DIO mice, BID oral (DA 23.1 mg/kg, DB 26.8 mg/kg), Day 14): 2.6 gram | Mean food consumption per animal for 24-h interval, Day 21 (male C57BL/6N DIO mice; DIO mice, BID oral (DA 23.1 mg/kg, DB 26.8 mg/kg), Day 21): 2.9 gram | Mean food consumption per animal for 24-h interval, Day 28 (male C57BL/6N DIO mice; DIO mice, BID oral (DA 23.1 mg/kg, DB 26.8 mg/kg), Day 28): 2.5 gram | Mean food consumption per animal for 24-h interval, Day 35 (male C57BL/6N DIO mice; DIO mice, BID oral (DA 23.1 mg/kg, DB 26.8 mg/kg), Day 35): 2.5 gram | Mean food consumption per animal for 24-h interval, Day 42 (male C57BL/6N DIO mice; DIO mice, BID oral (DA 23.1 mg/kg, DB 26.8 mg/kg), Day 42): 2.0 gram | Mean food consumption per animal for 24-h interval, Day 49 (male C57BL/6N DIO mice; DIO mice, BID oral (DA 23.1 mg/kg, DB 26.8 mg/kg), Day 49): 2.4 gram | Mean food consumption per animal for 24-h interval, Day 56 (male C57BL/6N DIO mice; DIO mice, BID oral (DA 23.1 mg/kg, DB 26.8 mg/kg), Day 56): 2.5 gram | Mean normalized body weight (% of baseline), study day 0 (male C57BL/6N DIO mice; DIO mice, BID oral (DA 23.1 mg/kg, DB 26.8 mg/kg), day 0): 100.0 % of baseline | Mean normalized body weight (% of baseline), study day 4 (male C57BL/6N DIO mice; DIO mice, BID oral (DA 23.1 mg/kg, DB 26.8 mg/kg), day 4): 100.5 % of baseline | Mean normalized body weight (% of baseline), study day 7 (male C57BL/6N DIO mice; DIO mice, BID oral (DA 23.1 mg/kg, DB 26.8 mg/kg), day 7): 99.7 % of baseline | Mean normalized body weight (% of baseline), study day 9 (male C57BL/6N DIO mice; DIO mice, BID oral (DA 23.1 mg/kg, DB 26.8 mg/kg), day 9): 99.4 % of baseline | Mean normalized body weight (% of baseline), study day 11 (male C57BL/6N DIO mice; DIO mice, BID oral (DA 23.1 mg/kg, DB 26.8 mg/kg), day 11): 99.0 % of baseline | Mean normalized body weight (% of baseline), study day 14 (male C57BL/6N DIO mice; DIO mice, BID oral (DA 23.1 mg/kg, DB 26.8 mg/kg), day 14): 99.3 % of baseline | Mean normalized body weight (% of baseline), study day 16 (male C57BL/6N DIO mice; DIO mice, BID oral (DA 23.1 mg/kg, DB 26.8 mg/kg), day 16): 98.0 % of baseline | Mean normalized body weight (% of baseline), study day 18 (male C57BL/6N DIO mice; DIO mice, BID oral (DA 23.1 mg/kg, DB 26.8 mg/kg), day 18): 97.9 % of baseline | Mean normalized body weight (% of baseline), study day 21 (male C57BL/6N DIO mice; DIO mice, BID oral (DA 23.1 mg/kg, DB 26.8 mg/kg), day 21): 99.5 % of baseline | Mean normalized body weight (% of baseline), study day 23 (male C57BL/6N DIO mice; DIO mice, BID oral (DA 23.1 mg/kg, DB 26.8 mg/kg), day 23): 100.5 % of baseline | Mean normalized body weight (% of baseline), study day 25 (male C57BL/6N DIO mice; DIO mice, BID oral (DA 23.1 mg/kg, DB 26.8 mg/kg), day 25): 100.3 % of baseline | Mean normalized body weight (% of baseline), study day 28 (male C57BL/6N DIO mice; DIO mice, BID oral (DA 23.1 mg/kg, DB 26.8 mg/kg), day 28): 100.2 % of baseline | Mean normalized body weight (% of baseline), study day 30 (male C57BL/6N DIO mice; DIO mice, BID oral (DA 23.1 mg/kg, DB 26.8 mg/kg), day 30): 100.5 % of baseline | Mean normalized body weight (% of baseline), study day 32 (male C57BL/6N DIO mice; DIO mice, BID oral (DA 23.1 mg/kg, DB 26.8 mg/kg), day 32): 102.8 % of baseline | Mean normalized body weight (% of baseline), study day 34 (male C57BL/6N DIO mice; DIO mice, BID oral (DA 23.1 mg/kg, DB 26.8 mg/kg), day 34): 103.6 % of baseline | Mean normalized body weight (% of baseline), study day 36 (male C57BL/6N DIO mice; DIO mice, BID oral (DA 23.1 mg/kg, DB 26.8 mg/kg), day 36): 104.1 % of baseline | Mean normalized body weight (% of baseline), study day 39 (male C57BL/6N DIO mice; DIO mice, BID oral (DA 23.1 mg/kg, DB 26.8 mg/kg), day 39): 104.7 % of baseline | Mean normalized body weight (% of baseline), study day 41 (male C57BL/6N DIO mice; DIO mice, BID oral (DA 23.1 mg/kg, DB 26.8 mg/kg), day 41): 105.3 % of baseline | Mean normalized body weight (% of baseline), study day 46 (male C57BL/6N DIO mice; DIO mice, BID oral (DA 23.1 mg/kg, DB 26.8 mg/kg), day 46): 106.0 % of baseline | Mean normalized body weight (% of baseline), study day 49 (male C57BL/6N DIO mice; DIO mice, BID oral (DA 23.1 mg/kg, DB 26.8 mg/kg), day 49): 107.8 % of baseline | Mean normalized body weight (% of baseline), study day 51 (male C57BL/6N DIO mice; DIO mice, BID oral (DA 23.1 mg/kg, DB 26.8 mg/kg), day 51): 107.8 % of baseline | Mean normalized body weight (% of baseline), study day 53 (male C57BL/6N DIO mice; DIO mice, BID oral (DA 23.1 mg/kg, DB 26.8 mg/kg), day 53): 107.4 % of baseline | Mean normalized body weight (% of baseline), study day 56 (male C57BL/6N DIO mice; DIO mice, BID oral (DA 23.1 mg/kg, DB 26.8 mg/kg), day 56): 108.4 % of baseline | food consumption compared to vehicle-dosed mice (male C57BL/6N DIO mice; DIO mice, BID oral, 56-day treatment): Lower food consumption was also seen on Days 0, 7, 28, 35, 42 and 49 | LD50 at 14 day [1]: 784 mg/kg | MTD at 14 day [1]: 360 mg/kg | Mortality rate (Sprague Dawley rats; 120 mg/kg): 0% | Mortality rate (Sprague Dawley rats; 360 mg/kg): 0% | Mortality rate (Sprague Dawley rats; 1000 mg/kg): 66.7% | Mortality rate (Sprague Dawley rats; 2000 mg/kg): 100% | No. of animals died within 24 h post dosing (Sprague Dawley rats; female, 120 mg/kg): 0 | No. of animals died within 24 h post dosing (Sprague Dawley rats; female, 360 mg/kg): 0 | No. of animals died within 24 h post dosing (Sprague Dawley rats; female, 1000 mg/kg): 3 | No. of animals died within 24 h post dosing (Sprague Dawley rats; female, 2000 mg/kg): 3 | No. of animals died within 24 h post dosing (Sprague Dawley rats; male, 120 mg/kg): 0 | No. of animals died within 24 h post dosing (Sprague Dawley rats; male, 360 mg/kg): 0 | No. of animals died within 24 h post dosing (Sprague Dawley rats; male, 1000 mg/kg): 1 | No. of animals died within 24 h post dosing (Sprague Dawley rats; male, 2000 mg/kg): 3 | activation of human TAS2Rs [2]: activates to varying degrees eight human TAS2Rs | gastric emptying rate (normal C57BL/6 mice): significantly inhibited gastric emptying rate | body weight as compared to vehicle (C57BL/6 DIO mice): induced a decrease in body weight | nutrient volume tolerance (healthy volunteers; listed as Denatonium benzoate): reduced nutrient volume tolerance | satiation (healthy volunteers; listed as Denatonium benzoate): increased satiation post meal | nutrient volume tolerance (healthy volunteers): decreased nutrient volume tolerance | satiation (healthy volunteers): increased satiation | hunger ratings (healthy volunteers): decreased hunger ratings | inter-digestive gastric motility (healthy volunteers): attenuated inter-digestive gastric motility
